Test results published in US8541584B2, “3-(1,2,3-triazol-4-yl) pyrrolo [2,3-b] pyridine derivatives” (Merck Patent GmbH, priority 2009, dated 2013).

molecular target: T1, IKKε (Homo sapiens, UniProt Q14164); test: IKKε kinase test (384-well flashplate); assay type: biochemical; conditions: 1 nM IKKε, 10 μM ATP, 30° C., 120 min; read-out: IC50 [IKKepsilon]
T1 sequence (Q14164 1-716): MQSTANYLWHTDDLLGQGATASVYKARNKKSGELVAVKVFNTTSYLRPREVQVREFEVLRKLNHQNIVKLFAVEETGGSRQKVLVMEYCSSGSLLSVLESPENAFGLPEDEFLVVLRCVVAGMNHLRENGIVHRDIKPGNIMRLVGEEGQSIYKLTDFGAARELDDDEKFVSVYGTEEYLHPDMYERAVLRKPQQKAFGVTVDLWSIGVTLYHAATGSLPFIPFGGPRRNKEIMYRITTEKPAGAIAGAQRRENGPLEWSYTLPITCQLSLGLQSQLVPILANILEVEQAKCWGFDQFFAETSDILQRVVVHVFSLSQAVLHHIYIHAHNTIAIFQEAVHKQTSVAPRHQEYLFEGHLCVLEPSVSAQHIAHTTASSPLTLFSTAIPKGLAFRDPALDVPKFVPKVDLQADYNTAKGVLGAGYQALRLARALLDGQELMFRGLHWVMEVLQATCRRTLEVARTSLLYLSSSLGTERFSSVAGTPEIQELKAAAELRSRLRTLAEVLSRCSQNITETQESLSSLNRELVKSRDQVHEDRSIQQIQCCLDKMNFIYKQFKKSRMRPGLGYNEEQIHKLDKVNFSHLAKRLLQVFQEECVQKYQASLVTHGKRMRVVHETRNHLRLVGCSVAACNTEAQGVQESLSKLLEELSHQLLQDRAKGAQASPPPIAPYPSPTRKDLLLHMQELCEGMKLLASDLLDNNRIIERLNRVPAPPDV
Method: IKKε—Kinase Test (IKKepsilon)
The kinase assay is performed as 384-well flashplate assay.
1 nM IKKε, 800 nM biotinylated IκBα(19-42) peptide (biotin-C6-C6-[…]) and 10 μM ATP (with 0.3 μCi of ^33P-ATP/well) are incubated in a total volume of 50 μl (10 mM MOPS, 10 mM magnesium acetate, 0.1 mM EGTA, 1 mM dithiothreitol, 0.02% of Brij35, 0.1% of BSA, 0.1% of BioStab, pH 7.5) with or without test substance at 30° C. for 120 min. The reaction is stopped using 25 μl of 200 mM EDTA solution, filtered off with suction after 30 min at room temperature, and the wells are washed 3 times with 100 μl of 0.9% NaCl solution. The non-specific proportion of the kinase reaction (blank) is determined using 3 μM EMD 1126352 (BX-795). Radioactivity is measured in the Topcount. IC50 values are calculated using RS1.

Structure (SMILES)	IC50 [nM]
Cc1cccc(Cn2cc(-c3c[nH]c4ncc(-c5cnn(C)c5)cc34)nn2)c1 [Compound A7, 3-[1-(3-Methylbenzyl)-1H-1,2,3-triazol-4-yl]-5-(1-methyl-1H-pyrazol-4-yl)-1H-pyrrolo[2,3-b]pyridine]	0.5 to 1000
Cn1cc(-c2cnc3[nH]cc(-c4cn(Cc5ccncc5)nn4)c3c2)cn1 [Compound A9, 5-(1-Methyl-1H-pyrazol-4-yl)-3-(1-pyridin-4-ylmethyl-1H-1,2,3-triazol-4-yl)-1H-pyrrolo-[2,3-b]pyridine]	0.5 to 1000
Cn1cc(-c2cnc3[nH]cc(-c4cn(Cc5cccc(F)c5F)nn4)c3c2)cn1 [Compound A25, 3-[1-(2,3-Difluorobenzyl)-1H-1,2,3-triazol-4-yl]-5-(1-methyl-1H-pyrazol-4-yl)-1H-pyrrolo-[2,3-b]pyridine]	0.5 to 1000

The next lines start with the values.

IC50 [nM]	Structure (SMILES)
0.5 to 1000	Cn1cc(-c2cnc3[nH]cc(-c4cn(Cc5ccccc5F)nn4)c3c2)cn1 [Compound A17, 3-[1-(2-Fluorobenzyl)-1H-1,2,3-triazol-4-yl]-5-(1-methyl-1H-pyrazol-4-yl)-1H-pyrrolo-[2,3-b]pyridine]
0.5 to 1000	CC(c1ccccc1C(F)(F)F)n1cc(-c2c[nH]c3ncc(-c4cnn(C)c4)cc23)nn1 (stereo not drawn) [Compound A20, 5-(1-Methyl-1H-pyrazol-4-yl)-3-{1-[1-(2-trifluoromethylphenyl)ethyl]-1H-1,2,3-triazol-4-yl}-1H-pyrrolo[2,3-b]pyridine]
1000 to 10000	Cn1cc(-c2cnc3[nH]cc(-c4cn(Cc5ccc6ncccc6c5)nn4)c3c2)cn1 [Compound A29, 6-{4-[5-(1-Methyl-1H-pyrazol-4-yl)-1H-pyrrolo[2,3-b]pyridin-3-yl]-1,2,3-triazol-1-ylmethyl}quinoline]
